Measured values reported in article PMC6100046, “Plasma Pharmacokinetic Determination of Canagliflozin and Its Metabolites in a Type 2 Diabetic Rat Model by UPLC-MS/MS” (Molecules : A Journal of Synthetic Chemistry and Natural …, 2018).
Like-named read-outs stand apart in the source and are kept apart here.

What was measured:
[1] = Plasma pharmacokinetics of canagliflozin and its metabolites after oral administration to CTRL and type 2 diabetic (DM) rats, UPLC-MS/MS; type: in vivo, rat; details: for AUC(0-inf) / Tmax / MRT last / half-life / Cmax: po; for AUC(0-inf): AUC0–∞, heading: AUC0–∞; for MRT last: read-out: MRT0–t; for half-life: read-out: t1/2z (converted); for Cmax: metabolites semi-quantitative; for Concentration of metabolite in rat plasma (in words): rat plasma after canagliflozin, UPLC-TOF-MS/MS identification
Text: The determination of metabolite concentrations was done by a semi-quantitative analysis method: the peak area of the metabolites was divided by the peak area of the original drug and then multiplied by the concentration of original drug.
The type 2 diabetic model was developed using a combination of a high-fat diet (HFD) and low-dose STZ injection. Briefly, rats were randomized into CTRL (control) and DM (diabetes mellitus) groups. The CTRL rats received a standard diet, whereas DM rats were fed high-fat food, which consisted of 63.5–66.5% normal chow, 1% cholesterol, 0.5% sodium cholate, 10% yolk, 12–15% lard, and 10% sucrose. DM rats were given an intraperitoneal injection of STZ (35 mg/kg, dissolved in citrate buffer, pH 4.5) after 4 weeks of dietary alteration, and CTRL rats received an equivalent injection of citrate buffer only. The blood glucose concentrations, food intake, and body weights of the rats were monitored weekly. Rats with non-fasting blood glucose levels lower than 16.67 mmol/L (300 mg/dL) were excluded from the DM group. Biochemical parameters (serum triglycerides, serum total cholesterol, and insulin) were measured on day 28 after the injection of STZ. The homeostasis model assessment of insulin resistance (HOMA-IR) was calculated by a standard equation to examine insulin sensitivity. The following experiments were performed on day 35 after STZ injection.
We performed the pharmacokinetic studies of canagliflozin after oral administration by gavage, and all rats used in this research were fasted for 12 h before dosing. CTRL and DM group rats (5 rats in each group) received a dose of canagliflozin at 20 mg/kg that was suspended in 0.5% sodium carboxymethylcellulose. A blood quantity of less than 0.3 mL was sampled via the oculi chorioideae vein after administration of canagliflozin at 1, 2, 3, 4, 5, 6, 7, 8, 10, 12, 24, 36 and 48 h under light ether anesthesia. All blood samples were immediately centrifuged at 5000 rpm for 10 min and the plasma was collected and frozen at −40 °C until analysis.
The acquisition software used were Analyst TF 1.7.1 software and Analyst software (AB Sciex, Redwood city, CA, USA). The pharmacokinetic parameters were processed by non-compartmental analysis using DAS 2.1.1 software (Mathematical Pharmacology Professional Committee of China, Shanghai, China). Data are presented as means ± SDs. Statistical differences were evaluated by Student’s t-test. A p-value of less than 0.05 indicated a statistically significant difference (SPSS 18.0 software, SPSS Inc., Chicago, IL, USA).

[2] = Stability of canagliflozin in rat plasma samples (QC samples); type: in vitro ADME; details: for Concentration found after storage (Mean ± SD): rat plasma, n = 5
Description: High, medium and low levels of QC concentrations were used to evaluate the stability of canagliflozin in plasma under the experimental conditions.
The specificity of the method was evaluated by comparing the chromatography of rat blank plasma samples with blank rat plasma spiked with standards at high, medium, low concentrations including LLOQ and rat plasma samples after oral administration of canagliflozin. The intra-day accuracy and precision were determined by analyzing five replicates of the QC samples at high, medium, and low concentrations within one day, while the inter-day accuracy and precision were conducted by determining five replicates of four levels of QCs on 3 separate days. The assay’s accuracy was represented by the […]. The precision was represented as the relative standard deviation (RSD) of the replicates. The matrix effect was determined by dividing the peak areas of canagliflozin spiked into extracted blank plasma by that of the analyte spiked in the mobile phase. The extraction recovery of canagliflozin and IS was assessed by comparing the peak areas of extracted plasma. […] […] The freeze (−80 °C)–thaw (room temperature) stability of the analytes in rat plasma was tested via three freeze–thaw cycles. […] In regard to the storage stability, the QC samples were prepared and stored at −80 °C for 30 days.

[3] = rat, plasma, 20 mg/kg, CTRL rats, canagliflozin 20 mg/kg oral, mean ± SD, n = 5
[4] = rat, plasma, 20 mg/kg, DM (type 2 diabetic) rats, canagliflozin 20 mg/kg oral, mean ± SD, n = 5

`Cc1ccc([C@@H]2O[C@H](CO)[C@@H](O)[C@H](O)[C@H]2O)cc1Cc1ccc(-c2ccc(F)cc2)s1` [Canagliflozin] gave a CL/F ([1]; rat, plasma, 20 mg/kg, heading: CLz/F, CTRL rats, canagliflozin 20 mg/kg oral, mean ± SD, n = 5) of 5.96 mL/min/kg, an AUC(0-inf) ([1]; rat, plasma, 20 mg/kg, CTRL rats, canagliflozin 20 mg/kg oral, plasma, mean ± SD, n = 5) of 56300 ng·h/mL and an AUC(0-inf) ([1]; rat, plasma, 20 mg/kg, DM (type 2 diabetic) rats, canagliflozin 20 mg/kg oral, plasma, mean ± SD, n = 5) of 28400 ng·h/mL. The Tmax [1, 3] was 3.6 ± 0.89 h, the MRT last [1, 3] was 14.1 ± 1.58 h and the half-life [1, 3] was 12.9 ± 2.64 h. It also gave a Cmax [1, 3] of 3310 ± 566 ng/mL, a Cmax [1, 4] of 2230 ± 559 ng/mL and a Tmax [1, 4] of 3.2 ± 0.45 h. The MRT last [1, 4] was 12.3 ± 2.77 h, the half-life [1, 4] was 10.2 ± 3.49 h and the “Stability in rat plasma (in words)” value ([2]; auto-sampler temperature (4 °C), 24 h) was “good stability”. For the same compound, the Concentration found after storage (Mean ± SD) ([2]; autosampler (4 °C) for 24 h, nominal concentration 25) was 25.7 ± 0.33 ng/mL, the Concentration found after storage (Mean ± SD) ([2]; autosampler (4 °C) for 24 h, nominal concentration 500) was 503.1 ± 4.41 ng/mL and the Concentration found after storage (Mean ± SD) ([2]; autosampler (4 °C) for 24 h, nominal concentration 800) was 806.8 ± 5.64 ng/mL. For the same compound, the Concentration found after storage (Mean ± SD) ([2]; room temperature (25 °C) for 24 h, nominal concentration 25) was 26.2 ± 0.96 ng/mL, the Concentration found after storage (Mean ± SD) ([2]; room temperature (25 °C) for 24 h, nominal concentration 500) was 504.4 ± 3.18 ng/mL and the Concentration found after storage (Mean ± SD) ([2]; room temperature (25 °C) for 24 h, nominal concentration 800) was 807.3 ± 6.12 ng/mL. The Concentration found after storage (Mean ± SD) ([2]; three freeze–thaw cycles (each at −80 °C for 24 h), nominal concentration 25) was 26 ± 1.02 ng/mL, the Concentration found after storage (Mean ± SD) ([2]; three freeze–thaw cycles (each at −80 °C for 24 h), nominal concentration 500) was 505.2 ± 4.12 ng/mL and the Concentration found after storage (Mean ± SD) ([2]; three freeze–thaw cycles (each at −80 °C for 24 h), nominal concentration 800) was 806.2 ± 4.19 ng/mL. The Concentration found after storage (Mean ± SD) ([2]; −80 °C for 30 days, nominal concentration 25) was 26.9 ± 0.85 ng/mL, the Concentration found after storage (Mean ± SD) ([2]; −80 °C for 30 days, nominal concentration 500) was 504.3 ± 2.14 ng/mL and the Concentration found after storage (Mean ± SD) ([2]; −80 °C for 30 days, nominal concentration 800) was 806.3 ± 3.51 ng/mL. For the same compound, the “Stability in rat plasma (in words)” value ([2]; room temperature (25 °C) for 24 h) was “stable”, the “Stability in rat plasma (in words)” value ([2]; storage conditions (−80 °C) for at least 30 days) was “stable” and the “Stability in rat plasma (in words)” value ([2]; −80 °C followed by three freeze and thaw cycles) was “good stability”.

In the case of `Cc1ccc(C2OC(CO)C(O)C(O)C2OC2OC(C(=O)O)C(O)C(O)C2O)cc1Cc1ccc(-c2ccc(F)cc2)s1` (stereo not shown) [M5], the “Concentration of metabolite in rat plasma (in words)” value (“Concentration of metabolite” for short) [1] is reported as “high”, the Tmax [1, 3] is reported as 1.8 ± 0.84 h and the half-life [1, 3] is reported as 14.6 ± 18.3 h. It also gave a Cmax [1, 3] of 126 ± 31.1 ng/mL, a Cmax [1, 4] of 160 ± 54.4 ng/mL and a Tmax [1, 4] of 1.67 ± 0.58 h. The half-life [1, 4] was 13.3 ± 6.25 h.

For `Cc1ccc(C2OC(CO)C(O)C(OC3OC(C(=O)O)C(O)C(O)C3O)C2O)cc1Cc1ccc(-c2ccc(F)cc2)s1` (stereo not shown) [M7], the “Concentration of metabolite” value [1] was “high”, the Tmax [1, 3] was 2.02 ± 0.11 h and the half-life [1, 3] was 10 ± 6.45 h. The Cmax [1, 3] was 44.9 ± 20.5 ng/mL, the Cmax [1, 4] was 90.6 ± 18.7 ng/mL and the Tmax [1, 4] was 1.81 ± 0.12 h. For the same compound, the half-life [1, 4] was 14.5 ± 4.86 h.

In the case of `OCc1ccc([C@@H]2O[C@H](CO)[C@@H](O)[C@H](O)[C@H]2O)cc1Cc1ccc(-c2ccc(F)cc2)s1` [M8], the “Concentration of metabolite” value [1] is reported as “almost too low to quantify”.

With `Cc1ccc(C2OC(CO)C(O)C(O)C2O)cc1C(O)c1ccc(-c2ccc(F)cc2)s1` (stereo not shown) [M9] the “Concentration of metabolite” value [1] was “high”, the Tmax [1, 3] was 5.01 ± 0.11 h and the half-life [1, 3] was 10.7 ± 1.63 h. For the same compound, the Cmax [1, 3] was 97.5 ± 10.8 ng/mL, the Cmax [1, 4] was 161 ± 10.5 ng/mL and the Tmax [1, 4] was 4.75 ± 0.5 h. For the same compound, the half-life [1, 4] was 12.8 ± 8.81 h.
